We go through three compounds from patent publication US20050266024A1 (priority 2002, published 2005).

“Also recorded” adds a separate entry of the source. Like-named read-outs stand apart in the source and are kept apart here.

Experiment [1] relates to Balb/C mice. The experiment can be described thus: ELISA for subclass of HBsAg specific antibody (IgG1/IgG2a). The class given is in vivo. To be noted: Example 6; serum samples from different experiments; FIG. 15. (In general: An ELISA detects its analyte on a solid surface through an enzyme-linked reagent.)
The subject of experiment [2] is Balb/C mice. The experiment can be described thus: Cellular immune responses after HBsAg DNA vaccine (assay not specified). The class given is in vivo. To be noted: as stated in Example 6. An excerpt: This experiment includes a plasmid that expresses HBsAg from the keratin 14 promoter. This was used to try and alter the expression of the antigen in different cell types and see if this affects the immune response. Mice were immunized twice.

Experiment [3] has as its system Balb/C mice. The experiment in a line: Resiquimod adjuvant test: cellular immune responses (CD8 ELISPOT) after HBsAg DNA vaccine. The experiment is classed as in vivo. Particulars: Example 16, topical. How it is done:
Resiquimod is delivered topically to the abdominal skin of Balb/c mice on either day −2, −1, 0, 1, 2 or 3 relative to immunization on day 0. Immunization utilizes a DNA vaccine that expresses the Hepatitis B surface antigen so that cellular and antibody responses found after treatment with Resiquimod can be evaluated and compared to a wealth of historical data. The formulation consists of either a 0.05% cream, or a DMSO solution (approximately 5 mg/ml). Ideally both types of formula are tested. One half of the mice are sacrificed 7 days after immunization to measure cellular immune responses (CD8 ELISPOT). The remaining mice are bled 28 days after immunization, boosted with the same schedule as the priming immunization and then sacrificed 2 weeks later to test for antibody and cellular responses. Serum is used to test for antibody titer and to evaluation subclass distribution of IgG antibodies indicating the bias of the immune response.
For immunization DNA vaccine plasmids with a well-known immune response are employed. Plasmid WRG7128 is a likely choice which expresses the Hepatitis B surface antigen (HBsAg) using the HCMV promoter/enhancer and generates a cellular and antibody response.
Resiquimod is formulated as either a 0.05% cream, or a 5 mg/ml solution in DMSO. To apply the cream, it is rubbed onto the abdomens of mice using a cotton swab. […]

In experiment [4] the test system is Balb/C mice. The class given is in vivo. To be noted: for g-IFN secretion: first experiment. How it is done:
Two further experiments were performed to assess the efficacy of imiquimod (Aldara cream) as an adjuvant for particle-mediated immunization with DNA (PMD). Both experiments used a plasmid expressing HBV sAg and cAg as a test vaccine. […] Readouts included antibody titers and cytokine ELISPOTs to the two antigens.
Groups of 5-10 Balb/c mice were vaccinated on the shaved abdomen with one shot each on day 0 (prime only) or days 0 and 28 (prime and boost). PMID was administered using an ND5.5 device with a payload of 1 mg Au and a 35 bar cylinder. […] In experiment one, a small, unmnetered amount of Aldara was delivered at the indicated times using a cotton swab to rub the cream in. […] The control cream was an over the counter hand cream which contained many of the same ingredients as the Aldara base cream.
Mice were bled retro-orbitally at 4 weeks for prime/boost groups. Blood was collected by intracardiac puncture, and spleens were removed for cellular assays at sacrifice at either week 2 (prime only) or week 6 (boost+2 weeks). Sera were analyzed for anti-sAg and anti-cAg antibodies using in-house ELISAs. Spleen cells from individual mice were stimulated with protein or peptide for g-IFN and IL-4 ELISPOT assays. Three sets of antigen were used: 1) intact cAg from Biodesign; 2) a library of overlapping sAg peptides (15 mers offset by 3 amino acids synthesized by Chiron); and 3) an immunodominant peptide from sAg (amino acids 28-39) known to bind the MHC class I molecule Ld. Specific spot-forming cells were calculated by subtracting the number of spots generated with cells cultured in medium alone.

Experiment [5] deals with Balb/C mice. The class given is in vivo. To be noted: Example 7; first experiment, prime only.
Experiment [6] concerns Balb/C mice. The experiment in a line: IFN-g ELISPOT of spleen cells after HBsAg DNA vaccine. Particulars: Example 2; prime and boost.
The subject of experiment [7] is Balb/C mice. The experiment can be described thus: Serum antibody ELISA (HBsAg) after HBsAg DNA vaccine. The class given is in vivo. Particulars: Example 2; prime and boost, HBsAg plasmid with HCMV promoter; FIG. 3. How it is done: (§1) For immunization with the Hepatitis B surface antigen (HBsAg) a plasmid containing the HCMV promoter/enhancer was used to drive expression of the HBsAg. For one experiment we also employed a plasmid in which the keratin 14 promoter was used instead of the HCMV promoter. This promoter is expected to have a more restricted pattern of expression and be expressed only in the skin unlike the HCMV promoter that is expressed in many cell types.
(§2) The cream is a 5% solution.
Serum samples were assayed for antibodies using an BLISA assay. Falcon Pro Bind microtiter plates were coated overnight at 4° C. with antigen in PBS (phosphate buffered saline, BioWhittaker). For HBsAg BLISA the antigen was purified HBsAg (BioDesign) at 0.1 ug per well, and for HSV ELISAs the antigen was 5 ug per well of an infected cell extract (Advanced Biotechnolgies Incorporated). […]
Plates were washed 3× and a biotinylated goat anti-mouse antibody (Southern Biotechnology) diluted 1:8000 in dilution buffer was added to the plate and incubated for 1 hr at RT. […] Optical density was read at 450 nm. Endpoint titers for HBsAg were calculated by comparison of the samples with a standard of known titer.

Experiment [8] concerns Balb/C mice. The experiment in a line: Anti-sAg and anti-cAg antibody ELISAs after PMID with HBV sAg/cAg plasmid. The experiment is classed as in vivo. Particulars: Example 7.
Experiment [9] relates to Balb/C mice. The experiment in a line: CD8 IFN-g ELISA of spleen cells after HBsAg DNA vaccine. The experiment is classed as in vivo. To be noted: Example 2; prime and boost.
Source text: as §1, §2
Mice were immunized with a DNA vaccine containing a HBsAg expressing plasmid using either a high dose (1 ug) or low dose (50 ng) of vaccine. […] One group was also treated for three days (day 0, 1 and 2). […] Results shown in FIG. 1 are from the CD8 IFN-g ELISA. […] The values are the means from 4 individual mice.

As to `CCCCC[C@H](O)/C=C/[C@H]1[C@H](O)CC(=O)[C@@H]1C/C=C\CCCC(=O)O` [PGE2], the “ratio of IgG1/IgG2a of HBsAg specific antibody” value in experiment [1] is “does not have the same effect overall”. In addition, the cellular responses entry in experiment [2] is “can enhance cellular responses”.
On to `CCOCc1nc2c(N)nc3ccccc3c2n1CC(C)(C)O` [Resiquimod, 4-amino-2-ethoxymethyl-alpha,alpha-dimethyl-1H-imidazo [4,5-c]quinoline-1-ethanol], for which the cellular immune response entry in experiment [3] was “boost in the cellular immune response”. In addition, the “immune responses to the DNA vaccines” value in [3] (before or after immunization) is reported as “enhances immune responses”.
In the case of `CC(C)Cn1cnc2c(N)nc3ccccc3c21` [imiquimod, 1-(2-methyl-propyl)-1H-imidazo[4,5-c]quinolin-4-amine], in experiment [4] (Example 7, first experiment, compared with sAg peptide library response), the “g-IFN ELISPOT response to class I-restricted peptide (CD8+ cells)” value is “comaparable responses were seen”. For the same compound, in experiment [4] (Example 7, time after PMID), the “optimal time point for augmenting g-IFN-secreting cells” value was “about a day and upto 7 days after PMID”. For the same compound, the g-IFN secretion entry in experiment [4] (highest dose of DNA, delivered right before or right after) is “slightly inhibitory”; in experiment [4] (highest dose of DNA, given 24 hours after), “augments PMID”; in experiment [4] (low doses of DNA, administration 24 hours post PMID), “most effective”; in experiment [4] (low doses of HBV-encoding DNA, all three time points) it was “enhances g-IFN secretion”. For the same compound, the “IL-4 ELISPOTs / IL-4 secretion” value in experiment [5] was “little effect; also recorded: no effect”. The “cellular response (ELISPOTs)” value in [6] is “enhanced the responses”. Besides, the antibody levels result in experiment [7] is given as “strong reduction in antibody levels”. In experiment [8], the “antibody titers / antibody responses to HBV sAg and cAg” value is given as “little effect; also recorded: did not enhance antibody responses”. The “cellular response (IFN-g ELISA)” value in [9] is on record as “enhanced the responses”.
